Measurements taken from patent US6476065B2, “Discalamide compounds and their use as anti-proliferative agents” (priority 2000, dated 2002).

Columns and labels:
[1] = system: A549 human lung adenocarcinoma cell line; assay: A549 cytotoxicity (antiproliferative) MTT assay; assay type: cell-based; details: A549 human lung adenocarcinoma cells, 72 hours exposure
Description: (§1) Compounds were analyzed as to their effects on proliferation of A549 human lung adenocarcinoma and P388 murine leukemia cell lines. P388 cells were obtained from Dr. R. Camalier, National Cancer Institute, Bethesda, Md., and A549 cells were obtained from American Type Culture Collection, Rockville, Md. All cell lines were maintained in Roswell Park Memorial Institute (RPMI) medium 1640 supplemented with 100 U/ml penicillin, […], 60 […], 18 mM HEPES, 0.05 mg/ml gentamicin (Life Technologies, Gaithersburg, Md.) and 10% fetal bovine serum and cultured in plastic tissue culture flasks at 37° C. in humidified air containing 5% CO2. Stock cultures of P388 cells were subcultured 1:20 in fresh tissue culture medium (TCM) every 2 to 3 days. Stock cultures of A549 cells were subcultured 1:10 every 3 to 4 days.
(§2) To assess the antiproliferative effects of agents against P388 cells, 200 μl cultures (96-well tissue culture plates, Nunc, Denmark) were established at 2×10^4 cells/ml in TCM or TCM containing the test agent at 0.03-5.0 μg/ml. After 48 hours exposure, P388 cells were enumerated using 3-[4,5-dimethylthiazol-2-yl]-2,5-diphenyltetrazolium bromide (MTT) as described in the literature (Alley, M. D. et al. [1988] Cancer Res. 48:589). A549 cells were enumerated in the same manner using 200 μl cultures established at 3×10^4 cells/ml and exposing the cultures to the test agents for 72 hours. The results were expressed as percent inhibition compared to the negative (no drug) control. Positive drug controls of varying dilutions of 5-fluorouracil and adriamycin (Sigma Chemical Co., St. Louis, Mo.) were included to monitor drug sensitivity of the cell line.
(§3) To quantitate the effects of compounds on cell proliferation and resulting IC50 values, 75 μl of warm growth media containing 5 mg/ml MTT is added to each well, cultures returned to the incubator, and left undisturbed for 3 hours. To spectrophotometrically quantitate formation of reduced formazan, plates are centrifuged (500×g, 10 minutes), culture fluids removed by aspiration, and 200 μl of acidified isopropanol (2 ml concentrated HC1/liter isopropanol) added per well. The absorbance of the resulting solutions is measured in a plate reader (Tecan Spectra SLT; TECAN U.S., Research Triangle Park, NC) at 570 nm with a 650 nm reference filter. The absorbance of tests wells is divided by the absorbance of drug-free wells, and the concentration of agent that results in 50% of the absorbance of untreated cultures (IC50) is determined by linear regression of logit-transformed data (Finney, D. J. [1978] Statistical Method in Biological Assay, third ed., pp.316-348, Charles Griffin Co., London). A linear relationship between tumor cell number and formazan production has been routinely observed over the range of cell densities observed in these experiments. The two standard drug controls (indicated above) are included in each assay as a check to monitor the drug sensitivity of each of the cell lines and IC50 values are determined for each drug-cell combination.

[2] = system: P388 murine leukemia cell line; assay: P388 cytotoxicity (antiproliferative) MTT assay; assay type: cell-based; details: P388 murine leukemia cells, 48 hours exposure
Description: as §1, §2, §3

[3] = system: NCI in vitro tumor cell line panel (approximately 60 cell lines); assay: National Cancer Institute's in vitro tumor cell line panel; assay type: cell-based, human
From the text: Discalamide A was additionally evaluated for its anti-proliferative effects utilizing the National Cancer Institute's in vitro tumor cell line panel. The results of these analyses are shown in the mean graphs presented as FIG. 3. The data are presented using known and accepted measurements of “lethal concentration-50” (LC50) where 50% of the cells are killed.

**Q.** Which results are given for C=C(CCC(C)C)COC(=O)[C@H](O)C/C=C\C[C@@H]1O[C@@H]2/C=C/C/C=C/C(C)=C\[C@H]3O[C@@H](C/C=C/C=C/C(=O)O[C@H](C2)[C@@]1(C)CO)C[C@H](O)[C@H]3C [Lasonolide A]?
**A.** IC50 [1]: 57 nM; IC50 [2]: 2.8 nM

**Q.** What does the source list for Discalamide B [2GP311 (Discalamide B)]?
**A.** IC50 [1]: 3.2 nM; IC50 [2]: 7.3 nM

**Q.** COc1cc2c(cc1O)CCN[C@]21CS[C@@H]2c3c(OC(C)=O)c(C)c4c(c3[C@H](COC1=O)N1[C@@H]2[C@H]2c3c(cc(C)c(OC)c3O)C[C@@H]([C@@H]1O)N2C)OCO4 [Ecteinascidin 743] was tested. Which IC50 [2] did it give?
**A.** 1.7 nM

**Q.** What does the source list for C=C1C[C@](OC)([C@H](O)C(=O)N[C@H]2OCO[C@H]3[C@@H]2O[C@H](C[C@H](O)CO)C(C)(C)[C@@H]3OC)O[C@H](C)[C@@H]1C [Mycalamide A]?
**A.** IC50 [1]: 3.6 nM; IC50 [2]: 5.2 nM

**Q.** C=C1C[C@](OC)([C@H](O)C(=O)N[C@H]2OCO[C@H]3[C@@H]2O[C@H](CC(/C=C/C/C=C/C=C/C(=O)O)OC)C(C)(C)[C@@H]3OC)O[C@H](C)[C@@H]1C (some centres unmarked) [2GP111 (Discalamide A), Discalamide A] was tested. Which IC50 [1] did it give?
**A.** 1.5 nM

**Q.** And the IC50 [2]?
**A.** 0.1 nM

**Q.** And the “effectiveness according to LC50 measurements for the NCI cell lines” value ([3]; HL-60(TB), K562, COLO 205, HCC-2998, SF-295, SNB-19, LOX IMVI, MALME-3M, M14, SK-MEL-2, SK-MEL-28, SK-MEL-5, UACC-257, CAKI-1, HS578T, MDA-MB-231/ATCC)?
**A.** particularly effective

**Q.** What about the “selective cytotoxicity by LC50 mean graphs (number of cell lines)” value ([3]; of approximately 60 cell lines tested, bars to the right of the midline, FIG. 3) of the same compound?
**A.** 16 cell lines

**Q.** C=C1C[C@](OC)([C@H](O)C(=O)N[C@H]2OCO[C@H]3[C@@H]2O[C@H](C[C@H](O)CCC/C=C/C=C/C=C/C(=O)N[C@@H](CCCNC(=N)N)C(=O)O)C(C)(C)[C@@H]3OC)O[C@H](C)[C@@H]1C [Onnamide A] was tested. Which IC50 [1] did it give?
**A.** 170 nM

**Q.** And the IC50 [2]?
**A.** 2.4 nM

**Q.** Ecteinascidin 729 was tested. Which IC50 [2] did it give?
**A.** 1.2 nM

**Q.** What does the source list for “Discalamide A methylester [2GP313 (Discalamide A-methylester)]”?
**A.** IC50 [1]: 0.8 nM; IC50 [2]: 0.3 nM

**Q.** What does the source list for C=C1C[C@](OC)([C@H](O)C(=O)N[C@H]2OCO[C@H]3[C@@H]2O[C@H](C[C@@H](CO)OC)C(C)(C)[C@@H]3OC)O[C@H](C)[C@@H]1C [Mycalamide B]?
**A.** IC50 [1]: 0.6 nM; IC50 [2]: 1.3 nM

**Q.** C=C/C=C\[C@H](C)[C@H](OC(N)=O)[C@@H](C)[C@H](O)[C@@H](C)C/C(C)=C\[C@H](C)[C@@H](O)[C@@H](C)/C=C\[C@@H](O)C[C@@H]1OC(=O)[C@H](C)[C@@H](O)[C@H]1C [Discodermolide] was tested. Which IC50 [1] did it give?
**A.** 25 nM

**Q.** And the IC50 ([2]; Mus musculus)?
**A.** 55 nM
